Data: the supplement of paper PMC5844555

Key:
Assay in all cases: 3' UTR reporter interaction score (median-centred robust z-score of log2 firefly/Renilla activity); higher = less repression of the 3' UTR reporter
Settings in all cases: HEK293T; 48 h
HRAS = tested on: HRAS
How it was run: (§1)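 HEK293T cells (10,000/well, 96-well plates) were co-transfected using DharmaFECT Duo with 100 ng firefly luc2P reporter carrying the gene's 3' UTR, 20 ng Renilla pRL-TK control and 2.5 pmol miRNA mimic. Dual-luciferase activities were read 48 h post-transfection. The interaction score is the log-transformed firefly/Renilla ratio as a per-plate robust z-score (median, median absolute deviation), median-centred per miRNA and averaged over at least two independent screens; more negative indicates interaction.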

MYCN = tested on: MYCN
How it was run: as §1

MYC = tested on: MYC
How it was run: as §1

EZH2 = tested on: EZH2
How it was run: as §1

NOTCH1 = tested on: NOTCH1
How it was run: as §1

FBXW7 = tested on: FBXW7
How it was run: as §1

MYT1L = tested on: MYT1L
How it was run: as §1

PHOX2B = tested on: PHOX2B
How it was run: as §1

TP53 = tested on: TP53
How it was run: as §1

RB1 = tested on: RB1
How it was run: as §1

ZEB2 = tested on: ZEB2
How it was run: as §1

MYB = tested on: MYB
How it was run: as §1

PHF6 = tested on: PHF6
How it was run: as §1

BRCA2 = tested on: BRCA2
How it was run: as §1

| Sequence | 3' UTR reporter interaction score (HRAS) | 3' UTR reporter interaction score (MYCN) | 3' UTR reporter interaction score (MYC) | 3' UTR reporter interaction score (EZH2) | 3' UTR reporter interaction score (NOTCH1) | 3' UTR reporter interaction score (FBXW7) | 3' UTR reporter interaction score (MYT1L) | 3' UTR reporter interaction score (PHOX2B) | 3' UTR reporter interaction score (TP53) | 3' UTR reporter interaction score (RB1) | 3' UTR reporter interaction score (ZEB2) | 3' UTR reporter interaction score (MYB) | 3' UTR reporter interaction score (PHF6) | 3' UTR reporter interaction score (BRCA2) |
| --- | --- | --- | --- | --- | --- | --- | --- | --- | --- | --- | --- | --- | --- | --- |
| GGAGAAAUUAUCCUUGGUGUGU | -0.545 | -0.523 | -1.2 | -0.15 | 0.146 | 0.978 | 0.261 | 1.16 | 0.00656 | 0.166 | -0.311 | -0.159 | 0.937 | -0.364 |
| GGCGGAGGGAAGUAGGUCCGUUGGU | -0.537 | -0.331 | -0.0304 | 0.332 | 0.067 | -0.817 | 0.0209 | -1.42 | -0.152 | 0.267 | 0.059 | 0.0558 | 0.0679 | 0.242 |
| GGCUGGCUCGCGAUGUCUGUUU | -0.0445 | 0.967 | -0.237 | -0.172 | -0.649 | 0.4 | 1.15 | 0.166 | 0.4 | 0.183 | 0.922 | -2.48 | 0.0685 | -2.13 |
| GGGCGCCUGUGAUCCCAAC | -0.201 | -0.708 | -0.484 | 0.0894 | -0.381 | 0.114 | 0.181 | 0.588 | 0.186 | -0.433 | -0.0882 | 0.137 | -0.831 | -0.242 |
| GGUAGAUUCUCCUUCUAUGAG | -0.338 | 0.767 | 0.11 | -0.351 | -0.435 | 1.14 | 1.11 | 0.393 | -0.00155 | -0.935 | 0.717 | 0.783 | 0.87 | -0.394 |
| GUCAACACUUGCUGGUUUCCUC | -1.53 | -0.83 | 1.11 | 1.25 | -0.696 | 1.04 | -2.13 | -0.934 | -0.391 | 0.731 | -0.604 | -0.366 | 0.545 | 1.05 |
| GUCAUACACGGCUCUCCUCUCU | 0.779 | -1.89 | 0.275 | -0.733 | 0.867 | -0.585 | -0.904 | -0.585 | -0.0395 | -0.0565 | 0.639 | 0.607 | -2.04 | 0.502 |
| GUCCAGUUUUCCCAGGAAUCCCUU | -1.3 | -0.357 | -0.0253 | 0.32 | 0.816 | -0.33 | 0.164 | -0.361 | -0.611 | -0.0539 | -0.186 | 0.98 | 0.802 | 0.301 |
| GUCCCUCUCCAAAUGUGUCUUG | 0.01 | 1.77 | 1.7 | 0.871 | -0.392 | -1.89 | -0.216 | -0.224 | 0.415 | -0.267 | -3.03 | 1.83 | -1.08 | 0.364 |
| GUCCGCUCGGCGGUGGCCCA | 0.202 | -0.651 | -0.572 | 0.465 | 0.197 | -0.455 | 0.878 | 0.167 | 0.883 | -0.471 | 0.167 | 0.218 | 0.23 | -0.044 |
| GUGAGUCUCUAAGAAAAGAGGA | -1.03 | -0.777 | -0.241 | -0.0137 | 0.287 | 1.15 | 0.22 | -1.54 | 1.06 | -0.543 | 0.201 | -1.86 | 0.947 | 0.654 |
| GUGCAUUGCUGUUGCAUUGCA | -0.237 | 0.79 | -1.33 | 0.0384 | 0.367 | -0.35 | 0.516 | 0.67 | 0.631 | -0.687 | -2.34 | -2.09 | -0.271 | -0.52 |
| GUGCAUUGUAGUUGCAUUG | -0.432 | -0.218 | -0.88 | -0.326 | 0.471 | 0.387 | -0.399 | 1.4 | 0.444 | -0.339 | -0.884 | 0.56 | -0.0198 | -0.383 |
| GUGCCGCCAUCUUUUGAGUGU | -0.278 | 0.415 | 1.02 | 1.03 | -0.278 | -3.5 | -0.378 | -0.654 | 0.183 | 0.47 | -1.72 | 0.102 | 1.8 | -0.313 |
| GUGCCUACUGAGCUGAUAUCAGU | -0.972 | 0.559 | 0.239 | 0.242 | -1.95 | 0.26 | -1.1 | 1.18 | 0.396 | 0.454 | -0.6 | 0.61 | -1.31 | 0.244 |
| GUGGCUGCACUCACUUCCUUC | -0.434 | 1.8 | 0.00108 | 0.166 | 0.486 | 0.899 | 1.48 | -0.165 | -1.37 | 1.44 | -0.491 | 0.056 | 1.53 | -1.87 |
| GUGUCUGCUUCCUGUGGGA | -2.48 | -0.382 | -0.0744 | -0.0979 | -0.363 | 0.999 | 0.553 | -0.344 | 0.286 | -0.362 | 0.24 | -0.0781 | 0.326 | 0.42 |
| GUGUCUUUUGCUCUGCAGUCA | 2.01 | 0.0597 | 1.06 | 1.94 | -1.08 | -1.58 | 0.207 | -2.8 | 0.375 | 0.189 | -1.45 | -0.175 | -0.433 | -0.493 |
| GUGUGUGGAAAUGCUUCUGC | 0.713 | 1.7 | -0.259 | 1.67 | -0.133 | -0.236 | -1.13 | -1.13 | -0.707 | 1.07 | -1.28 | 1.87 | 1.54 | -2.78 |
